Structures can show the parent of a compound that is named as a salt. Where two headings read alike, the source gives them in different places.

For data set [1], the target named is T1, NR1A/NR2B NMDA receptor subtype (Rattus norvegicus, UniProt P35439+Q00960).
T1 construct: buffy coat membrane fraction was prepared from frozen adult rat forebrains; tissue Zivic-Miller Laboratories, Inc; host or cells: adult rat forebrain membranes
Kind of data set: [3H]Ifenprodil binding assay (IFPNR), rat forebrain membranes. The procedure: b. [^3H]Ifenprodil Binding Assay (IFPNR) Protocol:
Ifenprodil, [phenyl-^3H]-(specific activity, 66.2 Ci/mmol) was purchased from Dupont NEN Research Products (Boston, Mass.). Ifenprodil tartrate was purchased from Research Biochemicals International (Natick, Mass.). HEPES, glutamate and glycine were purchased from Sigma Chemical Co. (St. Louis, Mo.).
All buffers and reagents used in assay incubations or to dissolve drugs were prepared using water purified through a Milli-Q reverse osmosis system (Millipore Corp., Bedford, Mass.) and treated with UV emissions. Prior to use in the assays buffers were further filtered through a sterile Coming filtration unit (Coming Glass Works, Coming, N.Y.) containing a 0.2 micron filter. Buffer used to rinse the membranes on the assay filters was prepared with purified water, but was not refiltered and was stored no longer than 5 days. Stock solutions of the drugs (usually 10 mM) were dissolved in 20 mM HEPES-KOH buffer pH 7.4 (assay buffer) with the addition of 1 to 5 μL of glacial AcOH, if needed to keep them in solution. Eliprodil was used as the reference NMDA antagonist. A stock solution of eliprodil was prepared, and was buffered with the addition of 10% DMSO. All subsequent dilutions from the stock solution were made in buffer.
An extensively washed buffy coat membrane fraction was prepared from frozen adult rat forebrains (Zivic-Miller Laboratories, Inc., Zelienople, Pa.) as described by Coughenour L. L.; Cordon, J. J., J. Pharmacol. Exp. Ther., 1997;280:584-592, and stored at −80° C. On the day of the assay, pellets of the frozen membrane fractions were resuspended in 35 mL of assay buffer at pH 7.4 using a POLYTRON (Kinematica A. G. Company, Littau, Switzerland) mixer at setting 6. After incubation at 37° C. for 30 minutes in a shaking water bath, the homogenate was centrifuged 40,000×g for 10 minutes at 4° C. The pellets were resuspended in fresh buffer and centrifuged 3 more times before final suspension for use in the assay.
(iii) [^3H]Ifenprodil Binding protocol:
Triplicate incubations were carried out in a volume of 0.5 mL in 1.3 mL polypropylene tubes (Marsh Biomedical Products Inc, Rochester, N.Y.) for 2 hours at room temperature. Incubations contained invention compounds, membranes (100-200 μg protein) and 4 nM [^3H]-ifenprodil in 20 mM HEPES-KOH buffer, pH 7.4 (assay buffer). Assays were started by addition of the membranes. Bound radioligand was separated by filtration under reduced pressure using a TOMTEC Mach II, 96-well cell harvester (Tomtec Inc, Orange, Conn.). Filtration was through Whatman GF/B glass fiber filters (Whatman Ltd., Maidstone, England), which had been soaked for at least 15 minutes in 0.3% polyethylenimine and allowed to air dry. The filters were rinsed with 3 mL of ice cold assay buffer within 6 seconds. Air was allowed to pass through the filters for an additional 10 seconds to remove residual moisture. The filter mat was supported on a cold (−20° C.) TEFLON (E. I. Du Pont de Nemours and Company, Wilmington, Del.) coated support, and filters from individual wells were separated and placed in Mini Poly-Q vials (Becklman Instruments Inc, Fullerton, Calif.) and filled with 4 mL of scintillation cocktail (Beckman Ready Protein^+). Radioactivity retained on the filter was determined by liquid scintillation spectrophotometry. Nonspecific binding was defined as the binding in the presence of […] ifenprodil. Ninety percent of the total binding of ifenprodil was specific binding at the NR1A/NR2B NMDA receptor subtype active site (as opposed to binding at a remote site).
Binding curves were statistically analyzed for a best 1- or 2-site competition fit using GRAPHPAD PRISM software (GraphPad Software Inc, San Diego, Calif.), a computer program used to analyze and graph scientific data. The normalized data was fitted by nonweighted nonlinear regression to either [formula]
Control data was entered as 100%, and no parameters were constrained. […]

A further data set has as its system Male Wistar albino rats. Kind of data set: Formalin footpad test (FT). Type of data set: in vivo, rat. The following applies: PO, statistically significant decrease in late-phase pain behaviour versus vehicle. As to the method:
a. The Formalin Footpad Test (FT):
The FT model was used to test invention compounds for pain alleviating properties. The model produces a biphasic response in a test animal that results from a change in pain intensity over time. The FT model utilizes an injection of dilute formalin into the hindpaw of a rodent, which produces high intensity acute pain behaviors which are measured for the first 10 minutes post formalin injection (early phase responding). High intensity acute pain behaviors include rapid licking or biting of the injected hindpaw. The second phase is a prolonged period of lower intensity pain behaviors (late phase responding) which are measured from 11 to 45 minutes post-formalin injection.
Male Wistar albino rats (Harlan Sprague-Dawley Labs), weighing approximately 100 g at the time of testing, were used. Animals were group-housed and acclimated to the housing facility for 1 week prior to testing. Animals were maintained on a 12-hour/12-hour light/dark cycle and fed block rodent chow. From 4 to 8 animals were randomly assigned to either a vehicle-only dose group or a vehicle-plus invention compound treatment group on the day of testing.
The testing apparatus was a 16″×8″ box divided into two 8″×8″ testing chambers. Each testing chamber comprised a floor and 3 walls made of clear plastic mirrors, and a fourth wall which was clear plastic that allowed observation of animal behavior. The top of each chamber was covered with a metal screen during testing to prevent animals from climbing out of the chamber. Two animals were tested simultaneously in the adjoining boxes, but animals were unable to observe one another.
Animals were weighed and placed into holding cages (2 animals per cage) in the testing room prior to dosing. Following approximately 30 minutes of acclimation to the testing room, each pair of animals was administered orally (PO) by gavage a mixture of invention compound plus vehicle or vehicle alone. The treated animals were then placed in individual test chambers and allowed to acclimate to the chambers for at least 20 minutes. Then 50 μL of a 2.5% solution of formalin in vehicle was injected subcutaneously (SC) in the plantar surface of the left hindpaw from 30 to 120 minutes after administration of the invention compound. A session timer was started following the formalin injection, and the amount of time the animal spent licking or biting the injected paw was clocked with a hand-held stopwatch. The cumulative time spent engaging in a pain response was manually recorded at 5-minute intervals for 45 minutes post formalin injection. Early phase responding included Minutes 0 to 10, and late phase responding included Minutes 11 to 45. At the end of the testing period, animals were sacrificed using carbon dioxide. […]

[2] abbreviates: Table 3, 4 nM [3H]-ifenprodil, read-out: IFPNR IC50.
[3] abbreviates: Table 4, 4 nM [3H]-ifenprodil, read-out: IFPNR IC50.
The mark [4] stands for this setting: Table 2, 4 nM [3H]-ifenprodil, read-out: IFPNR IC50 μm.

T1 sequence (Q00960 27-1482, other chains not shown): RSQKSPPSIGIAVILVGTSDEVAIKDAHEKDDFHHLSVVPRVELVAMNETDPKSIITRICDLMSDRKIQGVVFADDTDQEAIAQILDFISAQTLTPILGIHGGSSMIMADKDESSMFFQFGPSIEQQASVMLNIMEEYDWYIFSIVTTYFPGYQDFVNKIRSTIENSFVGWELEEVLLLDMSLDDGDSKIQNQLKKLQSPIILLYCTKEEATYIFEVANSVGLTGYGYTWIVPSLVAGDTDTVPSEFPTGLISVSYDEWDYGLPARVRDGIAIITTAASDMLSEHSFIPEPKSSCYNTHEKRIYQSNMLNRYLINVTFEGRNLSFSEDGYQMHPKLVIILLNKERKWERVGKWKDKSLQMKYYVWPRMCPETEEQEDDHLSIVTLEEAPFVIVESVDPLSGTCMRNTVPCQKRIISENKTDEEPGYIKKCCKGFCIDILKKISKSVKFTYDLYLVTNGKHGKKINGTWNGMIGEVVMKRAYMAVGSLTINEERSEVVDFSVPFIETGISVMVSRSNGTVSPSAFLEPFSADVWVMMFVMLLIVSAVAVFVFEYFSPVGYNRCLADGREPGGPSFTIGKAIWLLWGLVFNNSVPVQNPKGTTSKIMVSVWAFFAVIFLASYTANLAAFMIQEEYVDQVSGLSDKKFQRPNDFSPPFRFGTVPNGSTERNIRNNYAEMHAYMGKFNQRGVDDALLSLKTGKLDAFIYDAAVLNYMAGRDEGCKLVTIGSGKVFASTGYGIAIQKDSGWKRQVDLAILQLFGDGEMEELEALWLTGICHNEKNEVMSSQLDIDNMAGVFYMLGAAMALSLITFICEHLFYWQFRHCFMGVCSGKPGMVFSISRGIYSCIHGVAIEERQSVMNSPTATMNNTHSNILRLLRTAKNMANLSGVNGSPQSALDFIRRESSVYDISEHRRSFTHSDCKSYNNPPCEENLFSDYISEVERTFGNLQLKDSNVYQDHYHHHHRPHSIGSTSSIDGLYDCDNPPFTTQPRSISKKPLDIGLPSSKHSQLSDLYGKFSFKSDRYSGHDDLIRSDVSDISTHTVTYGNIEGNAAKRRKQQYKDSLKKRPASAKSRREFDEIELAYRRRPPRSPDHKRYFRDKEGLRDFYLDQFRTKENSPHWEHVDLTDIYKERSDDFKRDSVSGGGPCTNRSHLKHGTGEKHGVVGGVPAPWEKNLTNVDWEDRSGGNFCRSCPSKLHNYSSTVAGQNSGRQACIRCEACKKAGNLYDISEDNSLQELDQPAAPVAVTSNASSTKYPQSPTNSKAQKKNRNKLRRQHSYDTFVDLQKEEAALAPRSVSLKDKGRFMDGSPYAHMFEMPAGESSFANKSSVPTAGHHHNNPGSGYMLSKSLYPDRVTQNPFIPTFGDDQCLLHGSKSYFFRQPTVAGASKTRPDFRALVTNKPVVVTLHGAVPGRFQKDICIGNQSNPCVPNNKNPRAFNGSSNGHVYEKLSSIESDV

One may read the IC50 as the concentration that gives 50% inhibition. By melting point is commonly meant the temperature, or range, at which the solid turns liquid. Consider `O=c1[nH]c2ccc(C3=NOC(CN4CCC(c5ccc(F)cc5)CC4)C3)cc2o1` (centres unmarked) [Example 34, -{5-[4-(4-Fluorophenyl)piperidin-1-ylmethyl]-4,5-dihydroisoxazol-3-yl}-3H-benzoxazol-2-one], for which the melting point is 214 to 217 °C. Also, the half-maximal inhibitory concentration (IC50) in data set [1] (setting [2]) stood at 0.28 µM. Taken in the same sequence, the figures for `O=C(C1CC(c2ccc3[nH]c(=O)oc3c2)=NO1)N1CCC(Cc2ccc(F)cc2)CC1` (centres unmarked) [Example 18, 6-{5-[4-(4-Fluorobenzyl)piperidine-1-carbonyl]-4,5-dihydroisoxazol-3-yl}-3H-benzoxazol-2-one] were 210 to 213 °C and above 1 µM. As for `O=c1[nH]c2ccc(C3=NOC(CCN4CCC(c5ccc(F)cc5)CC4)C3)cc2o1` (centres unmarked) [Example 36, 6-(5-{2-[4-(4-Fluorophenyl)piperidin-1-yl]ethyl}-4,5-dihydroisoxazol-3-yl)-3H-benzoxazol-2-one], the melting point lay in the range of 188 to 194 °C. The IC50 in data set [1] (setting [2]) is above 1 µM. As to `Cc1c(C2=NOC(CN3CCC(Cc4ccc(F)cc4)CC3)C2)cc2oc(=O)[nH]c2c1Cl` (centres unmarked) [Example 33, 4-Chloro-6-{5-[4-(4-fluorobenzyl)piperidin-1-ylmethyl]-4,5-dihydroisoxazol-3-yl}-5-methyl-3H-benzoxazol-2-one], the melting point was in the range of 131 to 132 °C. The IC50 in data set [1] (Table 5, 4 nM [3H]-ifenprodil, read-out: IFPNR IC50) is 0.014 µM. Regarding `CC(O)(c1ccc(F)cc1)C1CCN(CC2CC(c3ccc4[nH]c(=O)oc4c3)=NO2)CC1` (centres unmarked) [Example 32, 6-(5-{4-[1-(4-Fluorophenyl)-1-hydroxyethyl]piperidin-1-ylmethyl}-4,5-dihydroisoxazol-3-yl)-3H-benzoxazol-2-one], the melting point was in the range of 125 to 134 °C. For the same compound, the IC50 in data set [1] (setting [3]) is above 1 µM. For `O=c1[nH]c2ccc(C3=NOC(CN4CCC(Sc5ccc(F)cc5)CC4)C3)cc2o1` (centres unmarked) [Example 28, 6-{5-[4-(4-Fluorophenylsulfanyl)piperidin-1-ylmethyl]-4,5-dihydroisoxazol-3-yl}-3H-benzoxazol-2-one] the same measures were 190 to 192 °C and 0.018 µM. On to `O=c1[nH]c2ccc(C3CC(CN4CCC(Cc5ccc(F)cc5)CC4)=NO3)cc2o1` (centres unmarked) [Example 5, 6-{3-[4-(4-Fluorobenzyl)piperidin-1-ylmethyl]-4,5-dihydroisoxazol-5-yl}-3H-benzoxazol-2-one], for which, in data set [1] (setting [4]), the IC50 turned out to be 0.047 µM. Also, the “FT (mg/kg), active dose” value in the data set on Male Wistar albino rats (Table 2) was above 30 mg/kg. `O=C(O)C1(CN2CCC(Cc3ccc(F)cc3)CC2)CC(c2ccc3[nH]c(=O)oc3c2)=NO1` (centres unmarked) [Example 22, 5-[4-(4-Fluorobenzyl)piperidin-1-ylmethyl]-3-(2-oxo-2,3-dihydrobenzoxazol-6-yl)-4,5-dihydroisoxazole-5-carboxylic acid] displayed a melting point of 188 to 194 °C. In addition, the IC50 in data set [1] (setting [4]) amounted to 0.788 µM. For `CC1(CN2CCC(Cc3ccc(F)cc3)CC2)CC(c2ccc3[nH]c(=O)oc3c2)=NO1` (centres unmarked) [Example 21, 6-{5-[4-(4-Fluorobenzyl)piperidin-1-ylmethyl]-5-methyl-4,5-dihydroisoxazol-3-yl}-3H-benzoxazol-2-one] the same measures were 82 to 86 °C and 0.011 µM.

In turn, `O=c1[nH]c2ccc(-c3cc(CN4CCC(Cc5ccc(F)cc5)CC4)on3)cc2o1` [Example 15, 6-{5-[4-(4-Fluorobenzyl)piperidin-1-ylmethyl]isoxazol-3-yl}-3H-benzoxazol-2-one] showed a melting point of 237 to 244 °C. Also, in data set [1] (setting [4]), the IC50 was 0.499 µM. `O=C(c1ccc(F)cc1)C1CCN(CC2CC(c3ccc4[nH]c(=O)oc4c3)=NO2)CC1` (centres unmarked) [Example 30, 6-{5-[4-(4-Fluorobenzoyl)piperidin-1-ylmethyl]-4,5-dihydroisoxazol-3-yl}-3H-benzoxazol-2-one] yielded a melting point of 188 to 190 °C. Further, in data set [1] (setting [3]), the IC50 was 0.759 µM. Take `O=c1[nH]c2ccc(C3=NOC(CN4CCC(Cc5ccc(F)cc5)CC4)C3)cc2o1` (single isomer, unassigned; (+)) [Example 4a, (+)-6-{5-[4-(4-fluorobenzyl)piperidin-1-ylmethyl]-4,5-dihydroisoxazol-3-yl}-3H-benzoxazol-2-one]: the IC50 in data set [1] (Table 1, 4 nM [3H]-ifenprodil, read-out: IFPNR (IC50 μM)) is 0.016 µM. In addition, in the data set on Male Wistar albino rats (Table 1), the “FT (mg/kg), active dose” value is on record as below 10 mg/kg. `O=c1[nH]c2ccc(C3=NOC(CN4CCC([S+]([O-])c5ccc(F)cc5)CC4)C3)cc2o1` (centres unmarked) (as salt: HCl) [Example 29, 6-{5-[4-(4-Fluorobenzenesulfinyl)piperidin-1-ylmethyl]-4,5-dihydroisoxazol-3-yl}-3H-benzoxazol-2-one]: the melting point lay within 170 to 178 °C. Regarding `O=c1[nH]c2ccc(C3=NOC(CN4CCC(Oc5ccc(F)cc5)CC4)C3)cc2o1` (centres unmarked) [Example 27, 6-{5-[4-(4-Fluorophenoxy)piperidin-1-ylmethyl]-4,5-dihydroisoxazol-3-yl}-3-H-benzoxazol-2-one], the melting point is 192 to 194 °C. The IC50 in data set [1] (setting [3]) turned out to be 0.059 µM. `O=c1[nH]c2ccc(C3=NOC(CN4CCC(O)(c5ccccc5)CC4)C3)cc2o1` (centres unmarked) [Example 35] registered a melting point of 115 to 118 °C. In addition, in data set [1] (setting [2]), the IC50 is above 1 µM.
